Values quoted from earlier work as cited in patent US20170210704A1, “DEUTERO-PHENFORMIN DERIVATIVES” (Enlibrium Inc, priority 2016, published 2017).

What was measured:
[1] = patients treated for type 2 diabetes
cytochrome P450 2D6 = details: 2D6 polymorphisms in humans; essentially no metabolism in poor metabolizers

risk of lactic acidosis [1] | metabolism in ultrarapid metabolizers relative to poor metabolizers (cytochrome P450 2D6) [fold] | Compound
0.1 events per 1,000 patient years | – | CN(C)C(=N)N=C(N)N [metformin, Metformin]
0.6 events per 1,000 patient years | 200 | [H]/N=C(/N)N/C(=N/[H])NCCc1ccccc1 [phenformin, Phenformin]
